According to the supplement of paper PMC10307832:

Experiments:
Test in all cases: relative viability (nuclei count vs DMSO), 5 days (fraction); higher = more cells survive
[1] = compound: C#Cc1cccc(Nc2ncnc3cc(OC)c(OCCCCCCC(=O)NO)cc23)c1 [CUDC-101] + CC(=O)Nc1cccc(-n2c(=O)n(C3CC3)c(=O)c3c(Nc4ccc(I)cc4F)n(C)c(=O)c(C)c32)c1 [Trametinib] (partner 0.02 µM)
Summary of the method: (§1)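 One day after seeding in 1536-well plates, lung cancer cell lines were dosed by pin tool. Dosing was either single-drug or a fixed anchor-drug dose plus five library-drug doses (not always all listed) in √10 steps. After 5 days, nuclei were stained in one fix-and-stain step and counted on 4× images, and relative viability is the nuclei count of treated wells over that of vehicle wells, given as the median of duplicate plates.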

[2] = compound: COc1cc(N2CCC(N3CCN(C)CC3)CC2)ccc1Nc1ncc(Cl)c(Nc2ccccc2S(=O)(=O)C(C)C)n1 [NVP-TAE684] + COc1cc2c(Oc3ccc(NC(=O)C4(C(=O)Nc5ccc(F)cc5)CC4)cc3F)ccnc2cc1OCCCN1CCOCC1 [Foretinib] (partner 0.25 µM)
Summary of the method: as §1

[3] = compound: COc1cc(N2CCC(N3CCN(C)CC3)CC2)ccc1Nc1ncc(Cl)c(Nc2ccccc2S(=O)(=O)C(C)C)n1 [NVP-TAE684] + CC(=O)Nc1cccc(-n2c(=O)n(C3CC3)c(=O)c3c(Nc4ccc(I)cc4F)n(C)c(=O)c(C)c32)c1 [Trametinib] (partner 0.02 µM)
Summary of the method: as §1

[4] = compound: COc1cc2/c(=N/c3ccc(Br)cc3F)nc[nH]c2cc1OCC1CCN(C)CC1 [Vandetanib] + C[C@@H](Oc1cc(-c2cnn(C3CCNCC3)c2)cnc1N)c1c(Cl)ccc(F)c1Cl [Crizotinib] (partner 1 µM)
Summary of the method: as §1

[5] = compound: COc1cc(N2CCC(N3CCN(C)CC3)CC2)ccc1Nc1ncc(Cl)c(Nc2ccccc2S(=O)(=O)C(C)C)n1 [NVP-TAE684] + CC(=O)c1c(C)c2cnc(Nc3ccc(N4CCNCC4)cn3)nc2n(C2CCCC2)c1=O [Palbociclib] (partner 0.5 µM)
Summary of the method: as §1

Cell Line | relative viability ([1]; first compound 0.01 µM) | relative viability ([1]; first compound 0.03162 µM) | relative viability ([1]; first compound 0.1 µM) | relative viability ([1]; first compound 0.3162 µM) | relative viability ([1]; first compound 1 µM) | relative viability ([2]; first compound 0.2 µM) | relative viability ([2]; first compound 0.6325 µM) | relative viability ([2]; first compound 2 µM) | relative viability ([3]; first compound 0.2 µM) | relative viability ([3]; first compound 0.6325 µM) | relative viability ([3]; first compound 2 µM) | relative viability ([4]; first compound 0.02 µM) | relative viability ([4]; first compound 0.06325 µM) | relative viability ([4]; first compound 0.2 µM) | relative viability ([4]; first compound 0.6325 µM) | relative viability ([4]; first compound 2 µM) | relative viability ([5]; first compound 0.2 µM) | relative viability ([5]; first compound 0.6325 µM) | relative viability ([5]; first compound 2 µM)
HCC-366 | 0.391 | 0.378 | 0.312 | 0.366 | 0.209 | 1.07 | 0.935 | 0.685 | 0.352 | 0.374 | 0.14 | 0.617 | 0.569 | 0.608 | 0.609 | 0.518 | 0.352 | 0.4 | 0.166
HCC-827 | 0.53 | 0.257 | 0.18 | 0.183 | 0.147 | 1.16 | 1.02 | 0.874 | 0.478 | 0.529 | 0.442 | 0.983 | 0.93 | 0.851 | 0.242 | 0.192 | 0.452 | 0.511 | 0.5
HOP-62 | 0.362 | 0.361 | 0.403 | 0.441 | 0.346 | 1.21 | 1.12 | 1.12 | 0.404 | 0.338 | 0.377 | 1.03 | 0.919 | 0.695 | 1.01 | 1.11 | 0.54 | 0.501 | 0.491
IA-LM | – | – | – | – | – | 1.07 | 1.07 | 1.11 | – | – | – | 0.978 | 0.802 | 0.899 | 1.3 | 1.24 | – | – | –
LC-2-ad | 0.929 | 0.913 | 0.912 | 0.823 | 0.773 | 0.936 | 0.864 | 0.403 | 0.881 | 0.926 | 0.669 | 0.468 | 0.46 | 0.493 | 0.441 | 0.414 | 0.43 | 0.482 | 0.32
LCLC-97TM1 | 0.175 | 0.193 | 0.223 | 0.227 | 0.164 | 0.933 | 0.897 | 0.278 | 0.202 | 0.219 | 0.09 | 0.32 | 0.342 | 0.232 | 0.459 | 0.441 | 0.251 | 0.249 | 0.0774
LCLC-103H | 0.666 | 0.66 | 0.662 | 0.707 | 0.681 | 0.681 | 0.681 | 0.297 | 0.692 | 0.693 | 0.603 | 1.03 | 1.01 | 1.12 | 1.05 | 1 | 0.482 | 0.447 | 0.413
LK-2 | 0.715 | 0.625 | 0.884 | 0.592 | 0.392 | 1.14 | 1.28 | 0.316 | – | 0.673 | 0.326 | 0.217 | 0.222 | 0.225 | 0.219 | 0.233 | 0.614 | 0.756 | 0.296
LOU-NH91 | 0.804 | 0.727 | 0.738 | 0.831 | 0.738 | 0.892 | 0.92 | 0.801 | 0.783 | 0.714 | 0.626 | 0.766 | 0.656 | 0.637 | 0.558 | 0.533 | 0.548 | 0.504 | 0.502
NCI-H522 | 0.605 | 0.747 | 0.893 | 0.651 | 0.642 | – | – | – | 0.652 | 0.776 | 0.738 | – | – | – | – | – | 0.973 | 0.99 | 0.893
NCI-H596 | 0.817 | 0.776 | 0.848 | 0.874 | 0.801 | 0.932 | 0.734 | 0.649 | 0.712 | 0.581 | 0.688 | 0.907 | 0.872 | 1.2 | 1.12 | 0.81 | – | – | –
NCI-H1299 | – | – | – | – | – | 1.16 | 1.14 | 1.08 | – | – | – | 0.932 | 0.902 | 0.927 | 0.967 | 0.95 | – | – | –
NCI-H1395 | 1.13 | 1.05 | 1.01 | 1.19 | 0.981 | 1.1 | – | 0.807 | 1.09 | 1.15 | 0.944 | – | – | – | – | – | 0.618 | 0.639 | 0.54
NCI-H1563 | – | – | – | – | – | 0.914 | 0.88 | 0.696 | – | – | – | 0.887 | 0.835 | 0.794 | 0.852 | 0.858 | – | – | –
NCI-H1623 | – | – | – | – | – | 0.865 | 0.899 | 0.65 | – | – | – | – | – | – | – | – | – | – | –
NCI-H1648 | 0.461 | 0.595 | 0.437 | 0.351 | 0.277 | – | – | – | 0.395 | 0.433 | 0.284 | – | – | – | – | – | 0.241 | 0.295 | 0.202
NCI-H1703 | – | – | – | – | – | 0.388 | 0.325 | 0.331 | – | – | – | 0.672 | – | 0.515 | 0.547 | 0.234 | – | – | –
NCI-H1792 | 0.607 | 0.322 | 0.439 | 0.453 | 0.359 | – | – | – | 0.413 | 0.388 | 0.271 | 0.941 | 0.973 | 0.924 | 0.991 | 0.894 | 0.606 | 0.615 | 0.648
NCI-H1793 | 0.331 | 0.347 | 0.349 | 0.427 | 0.44 | 0.684 | 0.587 | 0.22 | 0.468 | 0.303 | 0.414 | – | – | – | – | – | 0.297 | 0.302 | 0.239
NCI-H2342 | 0.789 | 0.947 | 0.814 | 0.819 | 0.777 | 1.07 | 1.06 | 0.545 | 0.77 | 0.935 | 0.638 | – | – | – | – | – | 0.499 | 0.459 | 0.457
SW 900 | 0.914 | 0.74 | 0.799 | 0.627 | 0.746 | 0.86 | 0.802 | 0.638 | 0.743 | 0.51 | 0.594 | – | – | – | – | – | 0.576 | 0.456 | 0.43
